Values of other authors as cited in patent EP0228223A2, “Non-irritating suprofen solution” (Cilag AG, priority 1985, dated 1987).
Entries after “also recorded” stand apart in the source; their conditions may differ.

How the values were obtained:
[1] = preparation swallowed; appears only seconds after swallowing, disappears within minutes

Compound | solubility in organic solvents and base (methanol, ethanol, chloroform, acetone, polyethylene glycol and 1.0 N sodium hydroxide) | solubility in water (water) | irritation in the throat [1]
CC(C(=O)O)c1ccc(C(=O)c2cccs2)cc1 (stereo not shown) [Suprofen, p-(2-thenoyl)hydratropic acid] | freely soluble | poorly soluble; also recorded: very slightly soluble | very characteristic irritation
CC(C(=O)O)c1ccc(C(=O)c2cccs2)cc1 (stereo not shown) [suprofen-sodium] | – | – | irritation effect occurs
